Reference: patent US11787819B2, “Crystalline salt of a multi-tyrosine kinase inhibitor, method of preparation, and use thereof” (Mirati Therapeutics, Inc., priority 2021, dated 2023)

Key:
[1] = Karl Fischer water content; assay type: physicochemical
Experimental: Coulometric Karl Fischer analysis for water determination was performed using a Mettler Toledo DL39 Karl Fischer titrator with a Stromboli oven attachment. Prior to analyses samples tested were exposed to specified ambient relative humidity for ˜2 hours. Two replicates of the sample were placed into the drying oven set at a temperature of approximately 140 or 145° C. The drying oven was purged into the titrator vessel with dry nitrogen. The samples were then titrated by means of a generator electrode, which produces iodine by electrochemical oxidation: 2I−→I2+2e−. A NIST-traceable water standard (Hydranal Water Standard 10.0) was analyzed to check the operation of the coulometer.
(§1) Experiments were carried out by exposing solids of the test materials to various RH conditions. Preparation of specimens for XRPD analyses of post-stress solids was conducted with minimal exposure to ambient conditions. For selected samples, Karl Fischer analysis was done concurrently with XRPD testing. These samples therefore were kept in a glove bag equilibrated at the RH near to the exposure conditions, and the XRPD specimens were prepared inside the glove bag.
(§2) To investigate this further, stress experiments were conducted at 30% and 93% RH with minimal exposure to ambient RH so that XRPD and water content analyses could be considered representative of the stress conditions. […] In these experiments, a mixture of Malate Form A/Malate Material H was initially subjected to 93% RH for ˜8 days. It was then immediately analyzed by XRPD and Karl Fischer. The same sample was then re-exposed to 30% RH.

[2] = Long term stability studies (related impurities by HPLC); assay type: physicochemical; conditions: 6 months storage at 40° C./75% RH, 12 months storage at 40° C./75% RH
[3] = Clinical trials, salt dosed in patients; assay type: in vivo, human
[4] = Long term stability studies (related impurities by HPLC); assay type: physicochemical
Experimental: Long term stability studies for Compound 1 Malate Form A were conducted at 2-8° C. and 25° C./60% RH. For each test interval, samples are packaged into double polyethylene bags, individually zip tied and stored in 30 mL white screw cap HDPE bottles.

[5] = Critical water activity slurries in organic solvent/water (XRPD); assay type: physicochemical; conditions: Acetone/H2O 98/2, 1 week, water activity 0.35
Experimental: An evaluation of the physical stability of Malate Form A under solvent-mediated conditions and assessment of the potential competition between solvate and hydrate formation were conducted by slurrying Malate Form A in various organic solvent/water systems (Table 3C).
An acetone/water system was selected for investigation of the stability at water activities between 0.4 and 0.9. Aqueous ACN, Dioxane, DMF, DMSO, and NMP were also investigated. A mixture of Malate Form A/Malate Material H was primarily used as the starting material. Samples of Malate Form A were combined and utilized as the starting material in a single experiment (acetone/water at low water activity).

[6] = Dynamic vapor sorption (DVS); assay type: physicochemical; conditions: 25° C.
Experimental: Moisture sorption/desorption data were collected using a Surface Measurement System (SMS) DVS Intrinsic Instrument according to the manufacturer's instructions. Samples were not dried prior to analysis. Sorption/desorption data were collected over a range from 5% to 95% relative humidity (RH) at 10% RH increments under a nitrogen gas purge. The equilibrium criterion used for analysis was less than 0.0100% weight change in 5 min with a maximum equilibration time of three hours. Data were not corrected for initial moisture content of the samples.
The sample was recovered after completion of the isotherm and re-analyzed by XRPD
Sorption isotherms of Compound 1 Malate Form A were obtained using a SMS DVS Intrinsic moisture sorption analyzer, controlled by DVS Intrinsic Control software. The sample temperature was maintained at 25° C. by the instrument controls. The humidity was controlled by mixing streams of dry and wet nitrogen, with a total flow rate of 200 mL/min. The relative humidity was measured by a calibrated Rotronic probe (dynamic range of 1.0-100% RH), located near the sample. The weight change, (mass relaxation) of the sample as a function of % RH was constantly monitored by a microbalance (accuracy ±0.005 mg).
Briefly, Malate Form A was placed in a tared mesh stainless steel basket under ambient conditions. The sample was loaded and unloaded at 40% RH and 25° C. (typical room conditions) and allowed to equilibrate to 5% RH. A moisture sorption isotherm was performed as outlined below (1 scan per complete cycle). The standard isotherm was performed at 25° C. at 10% RH intervals over a 5-95% RH range. Data analysis was carried out within Microsoft Excel using the DVS Analysis Suite.

[7] = Critical relative humidity stress (XRPD of post-stress solids); assay type: physicochemical; conditions: RT
Experimental: Critical relative humidity (RH) experiments were designed to confirm the physical stability RH range for Malate Form A in the solid-state. […] The water content of Malate Form A and Material D were characterized by Karl Fischer analysis. (See Table 3A(2)).
as §1
A mixture of Malate Form A/Malate Material H was subjected to 0%, 11%, 23%, 69%, and 93% RH, each for approximately 5 days. It should be noted that the stress RH was not maintained during the XRPD specimen preparation and analyses. Therefore, solids from all these stress conditions were briefly exposed to ambient RH estimated as ˜21-23% at the time of the analyses.
as §2

[8] = Pharmacokinetics in beagle dogs, oral capsule and IV solution; assay type: in vivo
Experimental: Centrifugation began within 1 hour of collection. Plasma was placed into 96-well tubes with barcode labels. Plasma was maintained on dry ice prior to storage at approximately −70° C.

[9] = Heat and elevated temperature/relative humidity stress (XRPD); assay type: physicochemical; conditions: heating at or above 40° C. (7 days at 40° C. and 80° C.; at or above 120° C. for ~1 hour)
Experimental: Heat and elevated temperature/RH stresses were designed to evaluate the physical stability of Compound 1 Malate Form A at elevated temperature. A mixture of Compound 1 Malate Form A/Malate Material H was utilized for testing. Experiments were conducted by heating solids of the test material at 40, 80, 120, and 140-145° C. Solids were also subjected to a combination of elevated temperature and RH, i.e. 40° C./75% RH and 30° C./60% RH (Table 3B).

[10] = Phase 1 single-dose crossover relative bioavailability study of capsule formulations in Healthy Subjects; assay type: in vivo, humans; conditions: 100 mg capsule, oral administration
Experimental: A Phase 1, 2-part, open-label, single-dose, crossover study was conducted to evaluate the relative bioavailability of Compound 1 Malate vs Compound 1 Free base capsule formulations in Healthy Subjects following oral administration.

[11] = Storage of Tartrate Form A-1 at 2-8° C. (XRPD); assay type: physicochemical; conditions: stored at 2-8° C. for 4 weeks

SMILES: COCCNCc1ccc(-c2cc3nccc(Oc4ccc(NC(=O)C5(C(=O)Nc6ccc(F)cc6)CC5)cc4F)c3s2)nc1 [Compound 1 Malate Form A]
- Water content (Karl Fischer) ([1]; after the 30% RH stress): 3.7%
- Water content, equivalent in mol ([1]; after the 30% RH stress): about 1.5 mol
- Water content (Karl Fischer) ([1]; after the 93% RH stress): 5.3%
- Water content, equivalent in mol ([1]; after the 93% RH stress): ~2.5 mol
- Calculated H2O content (KF, average value from 2 runs) ([1]; ~12% RH at sample preparation): Calculated H2O content: 3.47%
- Calculated H2O content (KF, average value from 2 runs) ([1]; ~17-18% RH at sample preparation, ~35 seconds for preparation): Calculated H2O content: 3.73%
- Calculated H2O content (KF, average value from 2 runs) ([1]; ~35-36% RH at sample preparation, ~35 seconds for preparation): Calculated H2O content: 5.32%
- Long term stability (in words) [2]: stable
- Dose reduction achieved when the salt was dosed in patients (vs free base) [3]: 20-30%
- Related Impurities (HPLC): Total impurities ([4]; 2-8° C., 0 month): 0.86%
- Related Impurities (HPLC): Total impurities ([4]; 2-8° C., 3 months): 0.87%
- Related Impurities (HPLC): Total impurities ([4]; 2-8° C., 6 months): 0.79%
- Related Impurities (HPLC): Total impurities ([4]; 2-8° C., 12 months): 0.78%
- Related Impurities (HPLC): Total impurities ([4]; 2-8° C., 24 months): 0.80%
- Long term stability (in words) ([4]; 24 months storage at 2-8° C. or 25° C./60% RH): stable
- Related Impurities (HPLC): Total impurities ([4]; 25° C./60% RH, 0 month): 0.86%
- Related Impurities (HPLC): Total impurities ([4]; 25° C./60% RH, 3 months): 0.76%
- Related Impurities (HPLC): Total impurities ([4]; 25° C./60% RH, 6 months): 0.83%
- Related Impurities (HPLC): Total impurities ([4]; 25° C./60% RH, 12 months): 0.80%
- Related Impurities (HPLC): Total impurities ([4]; 25° C./60% RH, 24 months): 0.90%
- XRPD Results after slurry [5]: Malate Form A + Malate Material B
- DVS weight loss, desorption ([6]; 15-5% RH): ~1.7%
- DVS weight loss, desorption ([6]; 95-15% RH): approximately 1.3 wt %
- DVS weight gain, sorption ([6]; between 5-25% RH): about 2.1 wt %
- DVS additional weight gain, sorption ([6]; between 25-95% RH): 1.1 wt %
- DVS weight loss upon equilibration at 5% RH ([6]; equilibration at 5% relative humidity): 1.2 wt %
- XRPD Results after RH stress ([7]; 30% RH, 4 days (~33% ambient RH at sample preparation, glove bag)): Malate Form A, slight peak shifts (c)
- XRPD Results after RH stress ([7]; 93% RH, 1 day): Malate Form A,
- Relative humidity above which the form is physically stable ([7]; below it a reversible dehydration was seen): above 23 % RH
- Absolute Bioavailability (%) (DN AUC [Oral]/DN AUC [IV]) * 100 ([8]; beagle dogs, orally administered): 34.2%
- Improvement in oral bioavailability compared to the amorphous of Compound 1 free base plus surfactant ([8]; dogs, in the absence of surfactant): 2 fold
- Effect of heating (XRPD) [9]: partial dehydration

SMILES: COCCNCc1ccc(-c2cc3nccc(Oc4ccc(NC(=O)C5(C(=O)Nc6ccc(F)cc6)CC5)cc4F)c3s2)nc1 [Compound 1 Malate, N-(3-fluoro-4-((2-(5-(((2-methoxyethyl)amino)methyl)pyridin-2-yl)thieno[3,2-b]pyridin-7-yl)oxy)phenyl)-N′-(4-fluorophenyl)cyclopropane-1,1-dicarboxamide (S)-2-hydroxysuccinate (1:1)]
- Bioequivalence to 120 mg Compound 1 Free base capsule formulation [10]: bioequivalence was achieved

SMILES: COCCNCc1ccc(-c2cc3nccc(Oc4ccc(NC(=O)C5(C(=O)Nc6ccc(F)cc6)CC5)cc4F)c3s2)nc1 [Compound 1, N-(3-fluoro-4-((2-(5-(((2-methoxyethyl)amino)methyl)pyridin-2-yl)thieno[3,2-b]pyridin-7-yl)oxy)phenyl)-N′-(4-fluorophenyl)cyclopropane-1,1-dicarboxamide]
- Long term stability (in words) ([4]; room temperature, drug substance and drug product): poor long term stability

SMILES: COCCNCc1ccc(-c2cc3nccc(Oc4ccc(NC(=O)C5(C(=O)Nc6ccc(F)cc6)CC5)cc4F)c3s2)nc1 [Tartrate Form A, N-(3-fluoro-4-((2-(5-(((2-methoxyethyl)amino)methyl)pyridin-2-yl)thieno[3,2-b]pyridin-7-yl)oxy)phenyl)-N′-(4-fluorophenyl)cyclopropane-1,1-dicarboxamide (2R,3R)-2,3-dihydroxysuccinate (1:1)]
- XRPD Results after storage [11]: Remained
